Test system: patients after acute myocardial infarction
Assay: TCM symptom score, total and single (chest pain, chest tightness, short breath, fatigue, palpitation, spontaneous perspiration, pale complexion), same clinical trial
Format: in vivo, human
Parameters: total score of TCM symptom, Mean / total score of TCM symptom, Min / total score of TCM symptom, Max / total score of TCM symptom, Md / change of total score of TCM symptom, Mean / change of total score of TCM symptom, Max / change of total score of TCM symptom, Md: scale not given here
From the text: 3508 patients who were in accordance with the diagnostic standards of AMI for 28 days to 2 years and differentiated as Qi deficiency and blood stagnation syndrome by TCM were studied. 0.5 g Chinese medicine composition prepared by the method of EXAMPLE 1 (Coded as QSYQ) was administrated half an hour after meal, 3 times per day.
They included the overall survival time, angina pectoris score, TCM symptom score and life quality score, where angina pectoris score, TCM symptom score and life quality score were evaluated at randomization, in 1st, 3rd, 6th, 9th, 12th month after treatment and 18th month after follow-up.
The analysis method referred to the angina pectoris score.

[1] = PP, 12 months after treatment-treatment
[2] = PP, 1 month after treatment-baseline

CC(=O)Oc1ccccc1C(=O)O [Control group, aspirine]
chest tightness score 2, percent of patients (Follow-up, FAS): (0.07%)
chest tightness score 3, number of patients (Follow-up, FAS): 479
chest tightness score 3, percent of patients (Follow-up, FAS): (33.57%)
chest tightness score 6, number of patients (Follow-up, FAS): 192
chest tightness score 6, percent of patients (Follow-up, FAS): (13.45%)
chest tightness score 9, number of patients (Follow-up, FAS): 1
chest tightness score 9, percent of patients (Follow-up, FAS): (0.07%)
chest pain score 0, number of patients (Follow-up, PP): 733
chest pain score 0, percent of patients (Follow-up, PP): (52.62%)
chest pain score 2, number of patients (Follow-up, PP): 1
chest pain score 2, percent of patients (Follow-up, PP): (0.07%)
chest pain score 3, number of patients (Follow-up, PP): 472
chest pain score 3, percent of patients (Follow-up, PP): (33.88%)
chest pain score 6, number of patients (Follow-up, PP): 186
chest pain score 6, percent of patients (Follow-up, PP): (13.35%)
chest pain score 9, number of patients (Follow-up, PP): 1
chest pain score 9, percent of patients (Follow-up, PP): (0.07%)
chest tightness score 0, number of patients (Follow-up, PP): 733
chest tightness score 0, percent of patients (Follow-up, PP): (52.62%)
chest tightness score 2, number of patients (Follow-up, PP): 1
chest tightness score 2, percent of patients (Follow-up, PP): (0.07%)
chest tightness score 3, number of patients (Follow-up, PP): 472
chest tightness score 3, percent of patients (Follow-up, PP): (33.88%)
chest tightness score 6, number of patients (Follow-up, PP): 186
chest tightness score 6, percent of patients (Follow-up, PP): (13.35%)
chest tightness score 9, number of patients (Follow-up, PP): 1
chest tightness score 9, percent of patients (Follow-up, PP): (0.07%)
change of short breath 0, % of patients [1]: (53.11%)
change of short breath 2, % of patients [1]: (36.17%)
change of short breath 2, number of patients [1]: 506
change of short breath 4, % of patients [1]: (4.50%)
change of short breath 4, number of patients [1]: 63
change of short breath 6, % of patients [1]: (0.79%)
change of short breath 6, number of patients [1]: 11
change of short breath −2, % of patients [1]: (5.36%)
change of short breath −2, number of patients [1]: 75
change of short breath −4, % of patients [1]: (0.07%)
change of short breath −4, number of patients [1]: 1
distribution of total score of TCM symptom: Medium, number of patients (PP, 1 month after treatment): 600
distribution of total score of TCM symptom: Medium, percentage of patients (PP, 1 month after treatment): (41.04%)
distribution of total score of TCM symptom: Mild, number of patients (PP, 1 month after treatment): 847
distribution of total score of TCM symptom: Mild, percentage of patients (PP, 1 month after treatment): (57.93%)
distribution of total score of TCM symptom: Severe, number of patients (PP, 1 month after treatment): 15
distribution of total score of TCM symptom: Severe, percentage of patients (PP, 1 month after treatment): (1.03%)
fatigue score 0, % of patients (PP, 1 month after treatment): (23.62%)
fatigue score 0, number of patients (PP, 1 month after treatment): 346
fatigue score 2, % of patients (PP, 1 month after treatment): (60.75%)
fatigue score 2, number of patients (PP, 1 month after treatment): 890
fatigue score 4, % of patients (PP, 1 month after treatment): (14.40%)
fatigue score 4, number of patients (PP, 1 month after treatment): 211
fatigue score 6, % of patients (PP, 1 month after treatment): (1.23%)
fatigue score 6, number of patients (PP, 1 month after treatment): 18
pale complexion score 0, number of patients (PP, 1 month after treatment): 613
pale complexion score 0, percent of patients (PP, 1 month after treatment): (41.81%)
pale complexion score 1, number of patients (PP, 1 month after treatment): 615
pale complexion score 1, percent of patients (PP, 1 month after treatment): (41.95%)
pale complexion score 2, number of patients (PP, 1 month after treatment): 211
pale complexion score 2, percent of patients (PP, 1 month after treatment): (14.39%)
pale complexion score 3, number of patients (PP, 1 month after treatment): 27
pale complexion score 3, percent of patients (PP, 1 month after treatment): (1.84%)
palpitation score 0, number of patients (PP, 1 month after treatment): 353
palpitation score 0, percent of patients (PP, 1 month after treatment): (24.11%)
palpitation score 1, number of patients (PP, 1 month after treatment): 1
palpitation score 1, percent of patients (PP, 1 month after treatment): (0.07%)
palpitation score 2, number of patients (PP, 1 month after treatment): 713
palpitation score 2, percent of patients (PP, 1 month after treatment): (48.70%)
palpitation score 4, number of patients (PP, 1 month after treatment): 351
palpitation score 4, percent of patients (PP, 1 month after treatment): (23.98%)
palpitation score 6, number of patients (PP, 1 month after treatment): 46
palpitation score 6, percent of patients (PP, 1 month after treatment): (3.14%)
short breath score 0, % of patients (PP, 1 month after treatment): (20.68%)
short breath score 0, number of patients (PP, 1 month after treatment): 303
short breath score 3, % of patients (PP, 1 month after treatment): (53.72%)
short breath score 3, number of patients (PP, 1 month after treatment): 787
short breath score 6, % of patients (PP, 1 month after treatment): (24.91%)
short breath score 6, number of patients (PP, 1 month after treatment): 365
short breath score 9, % of patients (PP, 1 month after treatment): (0.68%)
short breath score 9, number of patients (PP, 1 month after treatment): 10
spontaneous perspiration score 0, number of patients (PP, 1 month after treatment): 518
spontaneous perspiration score 0, percent of patients (PP, 1 month after treatment): (35.36%)
spontaneous perspiration score 1, number of patients (PP, 1 month after treatment): 738
spontaneous perspiration score 1, percent of patients (PP, 1 month after treatment): (50.38%)
spontaneous perspiration score 2, number of patients (PP, 1 month after treatment): 195
spontaneous perspiration score 2, percent of patients (PP, 1 month after treatment): (13.31%)
spontaneous perspiration score 3, number of patients (PP, 1 month after treatment): 14
spontaneous perspiration score 3, percent of patients (PP, 1 month after treatment): (0.96%)
total score of TCM symptom, Max (PP, 1 month after treatment): 34.00
total score of TCM symptom, Md (PP, 1 month after treatment): 11.00
total score of TCM symptom, Mean (PP, 1 month after treatment): 11.93
total score of TCM symptom, Min (PP, 1 month after treatment): 0.00
change of fatigue 0, % of patients [2]: (72.24%)
change of fatigue 0, number of patients [2]: 1054
change of fatigue 1, % of patients [2]: (0.07%)
change of fatigue 1, number of patients [2]: 1
change of fatigue 2, % of patients [2]: (17.82%)
change of fatigue 2, number of patients [2]: 260
change of fatigue 4, % of patients [2]: (2.40%)
change of fatigue 4, number of patients [2]: 35
change of fatigue 6, % of patients [2]: (0.82%)
change of fatigue 6, number of patients [2]: 12
change of fatigue −2, % of patients [2]: (5.96%)
change of fatigue −2, number of patients [2]: 87
change of fatigue −4, % of patients [2]: (0.62%)
change of fatigue −4, number of patients [2]: 9
change of fatigue −6, % of patients [2]: (0.07%)
change of fatigue −6, number of patients [2]: 1
change of pale complexion 0, number of patients [2]: 1275
change of pale complexion 0, percent of patients [2]: (87.45%)
change of pale complexion 1, number of patients [2]: 131
change of pale complexion 1, percent of patients [2]: (8.98%)
change of pale complexion −1, number of patients [2]: 52
change of pale complexion −1, percent of patients [2]: (3.57%)
change of palpitation 0, number of patients [2]: 1051
change of palpitation 0, percent of patients [2]: (71.99%)
change of palpitation 1, number of patients [2]: 295
change of palpitation 1, percent of patients [2]: (20.21%)
change of palpitation 2, number of patients [2]: 22
change of palpitation 2, percent of patients [2]: (1.51%)
change of palpitation 3, number of patients [2]: 4
change of palpitation 3, percent of patients [2]: (0.27%)
change of palpitation −1, number of patients [2]: 87
change of palpitation −1, percent of patients [2]: (5.96%)
change of palpitation −2, number of patients [2]: 1
change of palpitation −2, percent of patients [2]: (0.07%)

From patent publication US9211310B2, “Use of a Chinese medicine composition in preparing medicaments for treating secondary prevention of myocardial infarction” (TASLY PHARMACEUTICAL GROUP CO., LTD, priority 2010, dated 2015)
